Calls of active or inactive are those of the source. The rule behind the calls is not given here.

This assay relates to Mus musculus. Put plainly: Analgesic activity against paclitaxel-induced cold allodynia in C57BL/6 mouse model at 10 mg/kg, po administered at day 14 and day 25 of post paclitaxel stimulation and measured after 1 hr. In kind it is functional, organism-based.
Turning to `CC1=C(C(C)CO[C@@H]2O[C@H](CO)[C@@H](O)[C@H](O)[C@H]2O)C[C@@]2(O)[C@@]3(C)CC(=O)O[C@@H]4[C@@H](C)CC[C@@]3(O)[C@@]4(O)[C@@]12O` (some centres undefined), the result was Active.

Regarding `COc1cc([C@H]2OC[C@H]3[C@@H]2CO[C@@H]3c2cc(OC)c(O)c(OC)c2)cc(OC)c1O`, the outcome was Active.

Regarding `COc1cc(O[C@@H]2O[C@H](CO[C@@H]3OC[C@](O)(CO)[C@H]3O)[C@@H](O)[C@H](O)[C@H]2O)cc(OC)c1OC`, the result was Active.

Consider `CC(C)[C@@]1(O)CC2(O)[C@@]3(O)[C@]45O[C@](O)(C[C@@]2(C)[C@@]4(O)CC[C@H](C)[C@H]5O)[C@@]31C`, for which the outcome was Active.

Values taken from ChEMBL document CHEMBL4819042, “Aromatic and Aliphatic Apiuronides from the Bark of Cinnamomum cassia” (J Nat Prod, 2021).
